Patent publication US11884649B2, “IRE1α inhibitors and uses thereof” (The Regents of the University of California, priority 2020, dated 2024)

How the values were obtained:
IRE1α* = target: T1, IRE1α* (Homo sapiens, UniProt O75460); assay: In vitro kinase activity assay (IRE1α kinase inhibition); format: biochemical
T1 construct: human IRE1α (residues 547-977, IRE1α*) was expressed in SF9 insect cells; His6 (N); made in house; host or cells: Sf9 insect cells (Bac-to-Bac baculovirus)
In short: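 His6-tagged human IRE1α cytosolic kinase/RNase domains (residues 547-977) from SF9 cells, preincubated 30 min with inhibitor (top 10 or 60 μM, three-fold dilutions) in pH 7.5 HEPES/MgCl2 buffer, then 10 μCi [γ-32P]ATP, 23 °C, 3 h. Filter-spot autoradiography; inhibition normalised to no-kinase and DMSO wells; IC50 from one-site fit.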

IRE1α = target: T2, IRE1α (Rattus norvegicus, UniProt A0A4Y1YQ52); assay: ER stress-mediated IRE1α autophosphorylation by Phos-tag SDS-PAGE in INS-1 cells (Brefeldin-A); format: cell-based; conditions: various concentrations, 200 ng/μL Brefeldin-A (BFA) for 2 hours
T2 construct: endogenous in cells; host or cells: INS-1 rat insulinoma beta cells
Description: FIG. 21. […] Immunoblots for total IRE1α (bottom) from INS-1 cells treated with various concentrations of PAIR1 or KIRA9 followed by the addition of 200 ng/μL Brefeldin-A (BFA) for 2 hours. Samples were subjected to Phos-tag SDS-PAGE and % autophosphorylated IRE1α (top) was determined from the ratio of phosphorylated IRE1α relative to total IRE1α. Values shown are mean±SEM (n=3).
Treatment Conditions for Phostag Gels
INS-1 or IRE1α-overexpressing isogenic INS-1 cells were plated onto a 24-well Poly-D-Lysine coated tissue culture plate and grown for 48 hrs. Inhibitor or DMSO were added to the media and incubated for 1 hour at 37° C. with 5% CO2 prior to addition of ER stress agents. […] Cells were lysed directly into SDS loading buffer (50 mM Tris, 100 mM DTT, 2% SDS (w/v), 10% glycerol (v/v), and 0.1% bromophenol blue (w/v), pH 6.8) and boiled for five minutes prior to gel loading.
Phostag Acrylamide Gel Procedure
A phostag acrylamide gel recipe used to resolve phosphorylation of IRE1α has been previously established and this recipe was followed verbatim for this study.^91 Resolving gels were allowed to solidify (˜1.5 hr) before adding the stacking gel and comb and allowed to solidify (˜1 hr). Gels were run using Tris-Glycine-SDS running buffer (25 mM Tris, 192 mM glycine, 0.1% SDS, pH 8.3) at 100 V for 3-3.5 hours. […]

XBP1 mRNA splicing = assay: XBP1 splicing in ER-stressed INS-1 cells; format: cell-based, rat; conditions: DTT, 20 μM compound
Description: RNA Isolation, Quantitative Real-Time PCR, and Primers
INS-1 or isogenic IRE1α-overexpressing INS-1 cells were plated onto Poly-D-Lysine coated tissue culture plate and grown for 48 hrs. Inhibitors or DMSO were added to the media and incubated for 1 hour at 37° C. with 5% CO2 prior to addition of ER stress agents or Dox as indicated. RNA was isolated from whole cells using either QIAGEN RNeasy Mini kits or Trizol (Invitrogen) and reverse transcribed as above to obtain total cDNA. Then, XBP-1 primers were used to amplify an XBP-1 amplicon spanning the 26 nt intron from the cDNA samples in a regular 3-step PCR. Thermal cycles were: 5 min at 95° C., 30 cycles of 30 s at 95° C., 30 s at 60° C., and 1 min at 72° C., followed by 72° C. for 15 min, and hold at 4° C. Primers used for XBP-1 mRNA splicing were as follows: sense primer XBP1.3 S (5′ […]-3′ (SEQ ID NO:2)) and antisense primer XBP1.2AS (5′-[…]-3′ (SEQ ID NO:3)). PCR fragments were then digested by PstI, resolved on 3% agarose gels, stained with EtBr and quantified by densitometry using ImageJ (NIH). For standard mRNA detection, generally […] total RNA was reverse transcribed using the QuantiTect Reverse Transcription Kit (QIAGEN). For qPCR, we used SYBR green (QIAGEN) and StepOnePlus Real-Time PCR System (Applied Biosystems). Thermal cycles were: 5 min at 95° C., 40 cycles of 15 sec at 95° C., 30 sec at 60° C. […]

T2 sequence (A0A4Y1YQ52 21-977): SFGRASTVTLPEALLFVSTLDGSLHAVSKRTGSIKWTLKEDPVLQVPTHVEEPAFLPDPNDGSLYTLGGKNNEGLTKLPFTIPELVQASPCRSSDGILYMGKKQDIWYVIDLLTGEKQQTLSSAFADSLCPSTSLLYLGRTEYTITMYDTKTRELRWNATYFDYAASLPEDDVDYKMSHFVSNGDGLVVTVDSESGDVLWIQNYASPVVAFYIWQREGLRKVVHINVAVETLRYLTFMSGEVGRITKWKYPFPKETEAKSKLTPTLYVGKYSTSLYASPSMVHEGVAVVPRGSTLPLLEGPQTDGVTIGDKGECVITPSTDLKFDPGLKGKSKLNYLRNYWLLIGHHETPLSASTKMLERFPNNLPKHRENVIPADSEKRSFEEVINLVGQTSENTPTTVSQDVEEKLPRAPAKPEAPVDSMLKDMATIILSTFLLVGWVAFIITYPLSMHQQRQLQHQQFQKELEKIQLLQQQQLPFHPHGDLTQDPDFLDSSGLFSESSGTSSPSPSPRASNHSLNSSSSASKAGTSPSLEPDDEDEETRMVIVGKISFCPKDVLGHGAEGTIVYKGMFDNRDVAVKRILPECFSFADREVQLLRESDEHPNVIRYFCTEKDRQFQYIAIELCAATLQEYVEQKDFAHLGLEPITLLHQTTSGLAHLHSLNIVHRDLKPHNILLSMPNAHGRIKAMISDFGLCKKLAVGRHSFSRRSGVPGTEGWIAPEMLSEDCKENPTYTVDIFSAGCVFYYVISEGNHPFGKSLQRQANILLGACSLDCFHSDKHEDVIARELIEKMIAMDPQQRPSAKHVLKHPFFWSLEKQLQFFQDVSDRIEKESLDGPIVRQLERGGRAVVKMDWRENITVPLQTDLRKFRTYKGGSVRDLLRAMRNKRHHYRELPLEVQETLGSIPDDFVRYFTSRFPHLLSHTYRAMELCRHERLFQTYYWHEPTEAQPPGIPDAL
T1 sequence (O75460 547-977): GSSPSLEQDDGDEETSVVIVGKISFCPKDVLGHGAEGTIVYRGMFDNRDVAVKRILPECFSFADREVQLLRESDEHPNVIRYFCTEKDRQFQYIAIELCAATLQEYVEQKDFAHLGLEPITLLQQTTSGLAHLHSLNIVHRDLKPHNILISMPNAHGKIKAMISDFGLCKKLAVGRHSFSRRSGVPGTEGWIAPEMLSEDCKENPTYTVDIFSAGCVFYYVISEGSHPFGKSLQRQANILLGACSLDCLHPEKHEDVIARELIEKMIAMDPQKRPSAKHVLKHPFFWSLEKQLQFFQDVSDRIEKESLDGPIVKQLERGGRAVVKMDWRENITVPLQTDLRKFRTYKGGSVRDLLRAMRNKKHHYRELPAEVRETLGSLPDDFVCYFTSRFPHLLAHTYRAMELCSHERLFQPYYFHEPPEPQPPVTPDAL

O=S(=O)(CCC(F)(F)F)Nc1ccc(Oc2ncccc2-c2ccnc(NC3CCCNC3)n2)c2ccccc12 (centres unmarked) [KIRA9, 3,3,3-trifluoro-N-(4-(3-(2-(piperidin-3-ylamino)pyrimidin-4-yl)pyridin-2-yloxy)naphthalen-1-yl)propane-1-sulfonamide]
Ki (IRE1α*; read-out: Inhibition of IRE1α*'s kinase activity, Ki): 160 nM | IRE1α autophosphorylation (IRE1α): equipotently block ER stress-mediated IRE1α autophosphorylation

O=S(=O)(CC(F)(F)F)Nc1ccc(Oc2ncccc2-c2ccnc(N[C@H]3CCCNC3)n2)c2ccccc12 (stereo in doubt) [PAIR1, 2,2,2-trifluoro-N-(4-(3-(2-(piperidin-3-ylamino)pyrimidin-4-yl)pyridin-2-yloxy)naphthalen-1-yl)ethanesulfonamide]
IC50 (IRE1α*; IRE1α kinase inhibition, read-out: IC50 IRE1a): 25 nM | IRE1α autophosphorylation (IRE1α): equipotently block ER stress-mediated IRE1α autophosphorylation | XBP1 mRNA splicing (XBP1 mRNA splicing): only weakly inhibited
